Measurements: PubChem BioAssay (NCI)
“And” between values parts separate entries of the source, which are not always exact repeats. Equal entries are not always repeated.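 Growth conditions: 96-well plates. Treatment: test compound, 48 hours, 5 concentrations. Analysis: linear interpolation between bracketing concentrations; unreached endpoints set to highest concentration. GI50 = concentration required for 50% inhibition of growth. At the TGI there is no net growth.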

What was measured:
Test in all cases: NCI-60 cell line screen, 48 h
MCF7 breast = system: MCF7 breast
KM12 colon = system: KM12 colon
NCI-H226 lung = system: NCI-H226 lung
SK-OV-3 ovarian = system: SK-OV-3 ovarian
SF-539 CNS = system: SF-539 CNS
RPMI-8226 leukemia = system: RPMI-8226 leukemia
SNB-75 CNS = system: SNB-75 CNS
NCI-H23 lung = system: NCI-H23 lung
HT29 colon = system: HT29 colon
A549 NSCLC = system: A549 NSCLC

SMILES	TGI (MCF7 breast)	TGI (KM12 colon)	TGI (NCI-H226 lung)	TGI (SK-OV-3 ovarian)	TGI (SF-539 CNS)	TGI (RPMI-8226 leukemia)	TGI (SNB-75 CNS)	TGI (NCI-H23 lung)	TGI (HT29 colon)	TGI (A549 NSCLC)	GI50 (MCF7 breast)	GI50 (KM12 colon)	GI50 (NCI-H226 lung)	GI50 (SK-OV-3 ovarian)	GI50 (SF-539 CNS)	GI50 (RPMI-8226 leukemia)	GI50 (SNB-75 CNS)	GI50 (NCI-H23 lung)	GI50 (HT29 colon)	GI50 (A549 NSCLC)
c1c[nH]c(CN2CCN(Cc3ncc[nH]3)CC2)n1	> 100 µM	> 100 µM	> 100 µM	> 100 µM	> 100 µM	> 100 µM	> 100 µM	> 100 µM	> 100 µM	> 100 µM	–	–	–	–	–	–	–	–	–	–
O=C(c1ccco1)c1c(C(F)(F)F)n([O-])c2cc(Cl)c(Cl)cc2[n+]1=O	0.452 µM	0.75 µM	3.01 µM	5.83 µM	1.53 µM	3.29 µM	13.6 µM	1.36 µM	17.3 µM	2.55 µM	0.123 µM	0.186 µM	1.15 µM	2.95 µM	0.768 µM	0.196 µM	6.16 µM	0.545 µM	1.22 µM	1.04 µM
Nc1nc(-c2ccccn2)c(-c2ccc3ncccc3n2)s1	> 25 µM	> 25 µM	> 25 µM	> 25 µM	> 25 µM	> 25 µM	> 25 µM	> 25 µM	> 25 µM	> 25 µM	> 25 µM	> 25 µM	> 25 µM	> 25 µM	> 25 µM	> 25 µM	> 25 µM	> 25 µM	> 25 µM	> 25 µM
NC1=Nc2cc(OCCCCN3Cc4ccccc4C3)c(OCC3CC3)cc2C12CCCC2	2.99 µM	3.39 µM	3.48 µM	3.9 µM	2.91 µM	4.02 µM	2.48 µM	5.36 µM	3.13 µM	4.84 µM	1.37 µM	1.72 µM	1.32 µM	1.89 µM	1.53 µM	1.53 µM	1.19 µM	2.15 µM	1.26 µM	1.99 µM
O=C(CNC(=O)c1cccc2ccccc12)Nc1ccccc1Oc1ccc(O)cc1	> 25 µM	> 25 µM	> 25 µM	> 25 µM	2.45 µM	10.4 µM	> 25 µM	> 25 µM	> 25 µM	> 25 µM	0.847 µM	0.919 µM	4.74 µM	1.59 µM	0.688 µM	0.97 µM	0.591 µM	2.16 µM	0.992 µM	1.49 µM
CCCCCCCCCCCCNC(=O)N[C@H](C(=O)N[C@H]1/C=C/OCCNC(=O)/C=C/[C@H](C(C)C)NC1=O)C(C)C	> 100 µM	30 µM	> 19.7 µM	> 100 µM	18.4 µM	59.4 µM	> 100 µM	> 100 µM	65.4 µM	> 100 µM	0.385 µM	4.72 µM	4.53 µM	> 75.3 µM	2.49 µM	0.389 µM	4.31 µM	0.973 µM	0.599 µM	32.3 µM
COC(=O)[C@@H](C)C[C@H](Cc1ccccc1)NC(=O)c1nc([C@@H](C[C@H](C(C)C)N(C)C(=O)[C@@H](NC(=O)[C@H]2CC(=O)CCN2C)C(C)C)OC(C)=O)sc1C(C)C	> 16.7 µM	> 6.76 µM	2.95 µM	> 16.7 µM	0.967 µM	4.38 µM	> 15 µM	> 16.7 µM	> 6.97 µM	> 16.7 µM	0.0427 µM	0.132 µM	0.415 µM	0.809 µM	0.345 µM	0.056 µM	0.0518 µM	0.456 µM	0.146 µM	0.775 µM
O=c1c2cc(F)ccc2sc2c(NCCCNCCO)nc3ccc(F)cc3c12	3.2 µM	3.58 µM	3.52 µM	–	3.12 µM	5.1 µM	3.27 µM	3.28 µM	3.74 µM	4.4 µM	1.62 µM	1.84 µM	1.76 µM	–	1.68 µM	2.3 µM	1.51 µM	1.81 µM	1.82 µM	1.92 µM
O=C(/C=C/c1ccccc1)c1ccccn1	37.1 µM	34.2 µM and 28.5 µM	37.5 µM and > 100 µM	67 µM and > 100 µM	42.4 µM	31.6 µM and 81.1 µM	37.5 µM and 92.7 µM	33.3 µM and 35.5 µM	28.9 µM and 48.3 µM	46.1 µM and > 100 µM	–	–	–	–	–	5.71 µM and 15.9 µM	–	–	–	–
COc1cc(F)c(F)c(F)c1C(=O)c1cnc(NC2CCN(S(C)(=O)=O)CC2)nc1N	> 25 µM	> 14.4 µM	15.7 µM	> 25 µM	6.06 µM	9.66 µM	8.75 µM	14.8 µM	15.2 µM	> 25 µM	0.166 µM	0.958 µM	1.86 µM	11.6 µM	1.24 µM	0.417 µM	3.65 µM	1.24 µM	1.07 µM	1 µM
Nc1nc(N)c2nc(CNc3ccc(C(=O)NC(CCC(=O)O)C(=O)O)cc3)cnc2n1 (stereo not given)	> 100 µM	> 100 µM	> 100 µM	> 100 µM	> 100 µM	> 100 µM	> 100 µM	> 100 µM	> 100 µM	> 100 µM	0.0101 µM and < 0.01 µM	< 0.01 µM	–	0.0755 µM and < 0.01 µM	0.0204 µM and < 0.01 µM	0.0519 µM and 0.0313 µM	–	0.0604 µM and 0.0213 µM	< 0.01 µM	0.032 µM and < 0.01 µM
Cc1ccc(CNc2ccc(Cl)cc2NCc2ccc(C)c(O)c2)cc1O	14.3 µM	13.8 µM	22.1 µM	15.2 µM	14.4 µM	21.9 µM	12.1 µM	14.8 µM	17.9 µM	15.3 µM	6.18 µM	6.52 µM	10 µM	8.24 µM	7.31 µM	6.75 µM	5.47 µM	7.33 µM	9.73 µM	8.13 µM
CC(=O)O[C@@H]1[C@H]2O[C@H]2[C@H]2O[C@@]2(COC(=O)c2ccccc2)[C@H]1OC(C)=O	> 100 µM	> 100 µM	> 100 µM	> 100 µM	> 100 µM	> 100 µM	> 100 µM	> 100 µM	> 100 µM	> 100 µM	–	–	–	–	–	–	–	–	–	–
COc1ccc2c(c1)OCC1c3cc(OC)ccc3OC21 (stereo not given)	> 100 µM	> 100 µM	> 100 µM	> 100 µM	> 100 µM	> 100 µM	> 100 µM	> 100 µM	> 100 µM	> 100 µM	38.7 µM	43.3 µM	27.3 µM	> 100 µM	97.7 µM	21.5 µM	47.3 µM	36.2 µM	34.9 µM	89.1 µM
CC(C)c1c(C(=O)Nc2ccccc2)c(-c2ccccc2)c(-c2ccc(F)cc2)n1CC[C@@H](O)C[C@@H](O)CC(=O)O	> 100 µM	> 100 µM	> 100 µM	> 100 µM	> 100 µM	> 100 µM	> 26.5 µM	> 100 µM	> 100 µM	> 100 µM	27.5 µM	40.2 µM	25.5 µM	63.7 µM	25.6 µM	16.6 µM	2.09 µM	31 µM	50.3 µM	56.5 µM
CC(C)OC(=O)OCOP(=O)(OCOC(=O)OC(C)C)C1CCCN(O)C1=O (stereo not given)	> 100 µM	> 100 µM	> 100 µM	> 100 µM	> 100 µM	14.5 µM	> 100 µM	> 100 µM	> 100 µM	> 100 µM	1.52 µM	0.879 µM	1.36 µM	1.84 µM	5.79 µM	0.737 µM	5.46 µM	8.47 µM	0.571 µM	4.01 µM
O=C(/C=C/c1c[nH]c2ccccc12)c1ccccc1O	18.7 µM	70.1 µM	42.8 µM	33 µM	25.1 µM	62.1 µM	27.2 µM	–	33.9 µM	24.5 µM	–	–	–	–	–	–	–	–	–	–
C=C1C(=O)O[C@H]2[C@H]1CC/C(COC(=O)NCc1ccc(Cn3c(=O)sn(CCCI)c3=O)cc1)=C\CC[C@@]1(C)O[C@@H]21	3.24 µM	24.8 µM	37.7 µM	28.3 µM	3.34 µM	3.57 µM	–	4.91 µM	3.31 µM	25.3 µM	1.41 µM	7.98 µM	14.1 µM	13.6 µM	1.71 µM	0.899 µM	–	2.11 µM	1.74 µM	11.2 µM
Cc1n[nH]c(C)c1-c1c(C)n[nH]c1C	3.79 µM	3.97 µM	3.97 µM	–	3.35 µM	7.01 µM	4.43 µM	3.47 µM	4.81 µM	4.35 µM	1.66 µM	1.8 µM	1.77 µM	–	1.73 µM	1.87 µM	1.7 µM	1.74 µM	2.01 µM	1.68 µM
Cc1cc(C)c(CNC(=O)c2cc(Cl)c3c(c2C)O[C@@](C)(C2CCC(N(C)C)CC2)O3)c(=O)[nH]1 (stereo not given in full)	> 100 µM	> 100 µM	> 100 µM	–	> 100 µM	> 100 µM	> 100 µM	> 100 µM	> 100 µM	> 100 µM	49.5 µM	> 100 µM	93 µM	–	57.9 µM	38 µM	15.2 µM	75.6 µM	33.8 µM	71.6 µM
